Source: PubChem BioAssay (NCI)
Where “and” joins values, the source holds several entries; their conditions need not be identical. Identical values can stand only once.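 Method: 48-hour compound exposure of cells in 96-well plates, five concentrations, linear interpolation of endpoints. GI50: concentration for 50% inhibition of growth. TGI denotes the concentration required for complete inhibition of growth.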 Non-standard residues stand in square brackets, D forms with d. Residues, ends and D or L forms follow the SMILES beside them. *: point of attachment. ONb = O=[N+]([O-])c1ccc(CO*)cc1; AllylGly = C=CC[CH](N)C(=O)O; Boc = CC(C)(C)OC(=O)*

Tests used:
Assay in all cases: inhibition of tumour cell growth, NCI panel, 48 h
NCI/ADR-RES ovarian = test system: NCI/ADR-RES ovarian
TK-10 renal = test system: TK-10 renal
HS 578T breast = test system: HS 578T breast
BT-549 breast = test system: BT-549 breast
SNB-75 CNS = test system: SNB-75 CNS
HOP-62 NSCLC = test system: HOP-62 NSCLC

## CNc1ccc2nc3ccc(=[N+](C)C)cc-3sc2c1
NCI/ADR-RES ovarian
  GI50: 0.389 µM and 0.298 µM
  TGI: 9.17 µM and 7.58 µM
TK-10 renal
  GI50: 2.3 µM and 3.36 µM
  TGI: 7.69 µM and 14.6 µM
HS 578T breast
  GI50: 4.68 µM and 1.98 µM
BT-549 breast
  GI50: 4.87 µM and 5.73 µM
  TGI: 20.7 µM and 22.6 µM
SNB-75 CNS
  GI50: 1.89 µM and 1.34 µM
  TGI: 7.36 µM and 7.14 µM
HOP-62 NSCLC
  GI50: 2.54 µM and 0.867 µM
  TGI: 15.7 µM and 7.92 µM

## N=C1C(c2nc(-c3ccc(Br)cc3)cs2)=C(O)CN1Cc1cccnc1
NCI/ADR-RES ovarian
  GI50: 16.3 µM
  TGI: > 100 µM
TK-10 renal
  GI50: 2.23 µM
  TGI: 45.3 µM
HS 578T breast
  TGI: 2.86 µM
BT-549 breast
  GI50: 42.6 µM
  TGI: > 100 µM
SNB-75 CNS
  TGI: 22.9 µM
HOP-62 NSCLC
  GI50: 17.1 µM
  TGI: > 100 µM

## COc1nc(N(C)O)nc(N(C)O)n1
TK-10 renal
  GI50: 1.97 µM
  TGI: > 100 µM
BT-549 breast
  GI50: 3.16 µM
  TGI: > 100 µM
SNB-75 CNS
  GI50: 10 µM
  TGI: > 100 µM
HOP-62 NSCLC
  GI50: 0.442 µM
  TGI: 6.3 µM

## COc1cccc(C2CC(C)(N3CCCC3)Oc3cc4c(cc32)OCO4)c1O (stereo not given)
NCI/ADR-RES ovarian
  TGI: 62.4 µM
TK-10 renal
  TGI: > 93.9 µM
HS 578T breast
  TGI: 57.7 µM
BT-549 breast
  TGI: 87.7 µM
SNB-75 CNS
  TGI: 53.9 µM
HOP-62 NSCLC
  TGI: 90.1 µM

## C=C1CC2(OC1=O)C(=O)N(CCCCCCCN1C(=O)C3(CC(=C)C(=O)O3)c3ccccc31)c1ccccc12 (stereo not given)
NCI/ADR-RES ovarian
  GI50: 1.68 µM
  TGI: 8.78 µM
TK-10 renal
  GI50: 2.19 µM
  TGI: 8.32 µM
HS 578T breast
  GI50: 5.92 µM
  TGI: 32.3 µM
BT-549 breast
  GI50: 2.22 µM
  TGI: 9.14 µM
SNB-75 CNS
  GI50: 6.35 µM
  TGI: 19.5 µM
HOP-62 NSCLC
  GI50: 6.8 µM
  TGI: 15.4 µM

## CCN(CC)CCOc1nc2ccc(OC)cc2c2c1-c1ccc(OC)cc1C2=O
NCI/ADR-RES ovarian
  GI50: 0.848 µM
  TGI: 2.85 µM
TK-10 renal
  GI50: 1.38 µM
  TGI: 2.95 µM
HS 578T breast
  GI50: 1.48 µM
  TGI: 6.93 µM
BT-549 breast
  GI50: 5.94 µM
  TGI: 18 µM
SNB-75 CNS
  GI50: 1.36 µM
  TGI: 5.4 µM
HOP-62 NSCLC
  GI50: 1.33 µM
  TGI: 6.19 µM

## COc1ccc(Cl)cc1Nc1nc(C(F)(F)F)ccc1C(=O)N/N=C/c1c(Cl)cccc1Cl
TK-10 renal
  GI50: 6.32 µM
  TGI: 50.8 µM
HS 578T breast
  GI50: 20.2 µM
  TGI: > 100 µM
BT-549 breast
  GI50: 1.2 µM
  TGI: 6.84 µM
SNB-75 CNS
  GI50: 11.9 µM
  TGI: 42.3 µM
HOP-62 NSCLC
  GI50: 1.35 µM
  TGI: > 100 µM

## CC(=O)n1c(COS(C)(=O)=O)nc2ccccc21
NCI/ADR-RES ovarian
  TGI: > 100 µM
TK-10 renal
  TGI: > 100 µM
HS 578T breast
  TGI: > 100 µM
BT-549 breast
  TGI: > 100 µM
SNB-75 CNS
  TGI: > 100 µM
HOP-62 NSCLC
  TGI: > 100 µM

## C=CCC(NC(=O)OC(C)(C)C)C(=O)NC(CCC(=O)OCc1ccc([N+](=O)[O-])cc1)C(N)=O (stereo not given) (Boc-[AllylGly]-Glu(ONb)-NH2; configuration not given here)
TK-10 renal
  GI50: 34.3 µg/mL
HS 578T breast
  GI50: 19.8 µg/mL
  TGI: 45.5 µg/mL
SNB-75 CNS
  GI50: 21.4 µg/mL
  TGI: 51.5 µg/mL

## COC(=O)N[C@H]1CCc2c(Br)c(OC)c(OC)c(OC)c2-c2ccc(SC)c(=O)cc21
NCI/ADR-RES ovarian
  GI50: 0.0179 µM
TK-10 renal
  GI50: 9.63 µM
  TGI: > 85.9 µM
HS 578T breast
  GI50: < 0.01 µM
  TGI: > 52.1 µM
BT-549 breast
  GI50: < 0.01 µM
  TGI: 14.9 µM
SNB-75 CNS
  GI50: < 0.01 µM
  TGI: 20.9 µM
HOP-62 NSCLC
  GI50: < 0.01 µM
  TGI: > 100 µM

## N#Cc1c(Sc2ccccc2N)cccc1Sc1ccccc1N
NCI/ADR-RES ovarian
  GI50: 15.4 µM
  TGI: 38.4 µM
HS 578T breast
  GI50: 22.5 µM
BT-549 breast
  GI50: 76.9 µM
SNB-75 CNS
  GI50: 2.24 µM
  TGI: 14.5 µM

## COc1ccc2c(c1)/C(=C\c1c(C)nc3sc(C)cn13)C(=O)N2C
NCI/ADR-RES ovarian
  GI50: 1.32 µM
  TGI: 4.04 µM
TK-10 renal
  GI50: 4.35 µM
  TGI: 37.8 µM
HS 578T breast
  GI50: 1.83 µM
  TGI: 5.4 µM
BT-549 breast
  GI50: 6.01 µM
  TGI: 49.7 µM
SNB-75 CNS
  GI50: 5.88 µM
  TGI: 51.2 µM
HOP-62 NSCLC
  GI50: 20.5 µM
  TGI: > 100 µM

## COc1cc2c3c(n(C)c(=O)c2cc1OC)-c1cc2c(cc1/C3=C\CCCCCN)OCO2
NCI/ADR-RES ovarian
  GI50: 2.6 µM
  TGI: > 48.8 µM
TK-10 renal
  TGI: 22.5 µM
HS 578T breast
  GI50: 11.7 µM
  TGI: 46.1 µM
BT-549 breast
  GI50: 6.05 µM
  TGI: 21.3 µM
SNB-75 CNS
  GI50: 19.5 µM
  TGI: > 100 µM
HOP-62 NSCLC
  GI50: 0.612 µM
  TGI: > 45.9 µM

## COc1ccc2c(c1)[nH]c(=O)c1c3cc(C)c(C)cc3cn21
TK-10 renal
  GI50: 0.32 µM
  TGI: 1.27 µM
HS 578T breast
  GI50: < 0.01 µM
BT-549 breast
  GI50: 0.024 µM
  TGI: 0.366 µM
SNB-75 CNS
  GI50: < 0.01 µM
  TGI: 4.37 µM
HOP-62 NSCLC
  GI50: < 0.0185 µM
  TGI: 1.9 µM

## N#CCC1COc2ccccc2O1 (stereo not given)
NCI/ADR-RES ovarian
  TGI: > 10 µM
TK-10 renal
  TGI: > 10 µM
HS 578T breast
  TGI: > 10 µM
BT-549 breast
  TGI: > 10 µM
SNB-75 CNS
  TGI: > 10 µM
HOP-62 NSCLC
  TGI: > 10 µM

## C=CCn1c2c(c3ccccc3c1=O)C(=O)c1ccccc1-2
NCI/ADR-RES ovarian
  TGI: > 100 µM
TK-10 renal
  TGI: > 100 µM
HS 578T breast
  TGI: > 100 µM
BT-549 breast
  TGI: > 100 µM
SNB-75 CNS
  TGI: > 100 µM
HOP-62 NSCLC
  TGI: > 100 µM

## COc1ccc(-c2nc3sc(C)cn3c2/C=C/C(=O)c2cc(OC)c(OC)c(OC)c2)cc1
NCI/ADR-RES ovarian
  GI50: 2.8 µM
  TGI: 8.11 µM
TK-10 renal
  GI50: 5.55 µM
  TGI: > 100 µM
BT-549 breast
  GI50: 4.13 µM
  TGI: > 100 µM
SNB-75 CNS
  GI50: 4.09 µM
  TGI: > 100 µM
HOP-62 NSCLC
  GI50: 4.28 µM
  TGI: > 100 µM

## COc1cc(-c2nn(-c3ccc(NC(=O)c4ccc(Cl)c(Cl)c4)cc3)cc2-c2ccncc2)ccc1Cl
NCI/ADR-RES ovarian
  GI50: 7.16 µM
  TGI: > 100 µM
TK-10 renal
  GI50: > 100 µM
  TGI: > 100 µM
HS 578T breast
  GI50: 4.13 µM
  TGI: > 100 µM
BT-549 breast
  GI50: > 100 µM
  TGI: > 100 µM
SNB-75 CNS
  GI50: 7.52 µM
  TGI: > 100 µM
HOP-62 NSCLC
  GI50: 2.28 µM
  TGI: 7.51 µM

## COc1cc(/C(C#N)=C/c2ccc3c(c2OC)OCO3)cc2c1OCO2
NCI/ADR-RES ovarian
  GI50: 0.0346 µM
  TGI: 0.381 µM
TK-10 renal
  GI50: 0.982 µM
  TGI: 37.2 µM
HS 578T breast
  GI50: 0.0448 µM
  TGI: 0.4 µM
BT-549 breast
  GI50: 0.669 µM
  TGI: 29.3 µM
SNB-75 CNS
  GI50: 0.0878 µM
  TGI: 3.42 µM
HOP-62 NSCLC
  GI50: 0.138 µM
  TGI: 14.3 µM

## Cc1cc(-c2ncc(CC(=O)Nc3ccc(-c4cnccn4)cn3)cc2C)ccn1
NCI/ADR-RES ovarian
  GI50: 17.6 µM
  TGI: > 100 µM
TK-10 renal
  GI50: 16.4 µM
  TGI: > 100 µM
HS 578T breast
  GI50: 26 µM
  TGI: > 100 µM
SNB-75 CNS
  GI50: 13.8 µM
  TGI: > 100 µM
HOP-62 NSCLC
  GI50: 33.5 µM
  TGI: > 100 µM

## COc1cc(O)c([C@@H]2C[C@H](CCc3ccc(O)cc3)O[C@H](c3ccc(O)cc3)C2)c(O)c1C(=O)/C=C/c1ccc(O)cc1
NCI/ADR-RES ovarian
  GI50: 5.53 µM
  TGI: 25.5 µM
TK-10 renal
  GI50: 3.94 µM
  TGI: 13.5 µM
HS 578T breast
  GI50: 2.53 µM
  TGI: 15.4 µM
BT-549 breast
  GI50: 2.39 µM
  TGI: 5.34 µM
SNB-75 CNS
  GI50: 2.86 µM
  TGI: 8.22 µM
HOP-62 NSCLC
  GI50: 2.77 µM
  TGI: 6.02 µM

## O=C(Oc1ccc(Cl)cc1Cl)c1ccccc1Nc1ccnc(C(F)(F)F)c1
NCI/ADR-RES ovarian
  GI50: 3.66 µM
  TGI: 11.7 µM
TK-10 renal
  GI50: 4.05 µM
  TGI: 23.9 µM
HS 578T breast
  GI50: 24.9 µM
  TGI: 73.9 µM
BT-549 breast
  GI50: 6.7 µM
  TGI: 25.4 µM
